Values of other authors in patent publication US20240016826A1, “COMPOSITION, PHARMACEUTICAL COMPOSITION, USE OF A STABLE TOPICAL COMPOSITION COMPRISING A NANOEMULSION AND OF AT LEAST ONE ANTILEISHMANIAL COMPOUND, AND METHOD FOR THE TREATMENT OF CUTANEOUS LEISHMANIASIS” (priority 2020, published 2024).

Test system: L. (L.) major
Conditions: Old World patients, cutaneous leishmaniasis due to L. (L.) major (MOHEBALI et al., 2007)

CCCCCCCCCCCCCCCCOP(=O)([O-])OCC[N+](C)(C)C [miltefosine, hexadecylphosphocholine]
cure rate: 93%
